Data as given in article PMC10100771, “A Novel CMY Variant Confers Transferable High-Level Resistance to Ceftazidime-Avibactam in Multidrug-Resistant Escherichia coli” (Microbiology Spectrum, 2023).
In brackets after ≈: the same amount, converted by molar mass.

Key:
E. coli J53 = experiment: MIC by agar dilution, recipient E. coli J53; assay type: cell-based; conditions: Escherichia coli
Method: (§1) Antimicrobial susceptibility testing was performed and interpreted according to the Clinical and Laboratory Standards Institute (CLSI) guidelines and breakpoints (M100, 31st edition) by the agar dilution method. E. coli ATCC 25922 and K. pneumoniae ATCC 700603 served as control strains.
(§2) The antibiotics we used included meropenem (Hanhui Pharmaceutical Co., Ltd., China), imipenem (Merck Sharp & Dohme Corp., USA), cefepime (Jiangsu Hengrui Pharmaceutical Co., Ltd., China), piperacillin (Suzhou Erye Pharmaceutical Co., Ltd., China), ceftazidime (Guangdong Jincheng Jinsu Pharmaceutical Co., Ltd., China), tazobactam (Meilunbio, China), avibactam (MedChemExpress, USA), aztreonam (Sigma-Aldrich, USA), amikacin (Meilunbio), cefuroxime (Esseti Farmaceutici S.r.l., Italy), fosfomycin (Harbin Pharmaceutical Group Co., Ltd. China), levofloxacin (Daiichi Sankyo Company Limited, Beijing, China), and cefotaxime (North China Pharmaceutical Hebei Huamin Pharmaceutical Co., Ltd., China).
(§3) Conjugation experiments were performed by filter mating using sodium-azide-resistant E. coli J53 as the recipient, as described previously. Transconjugants were selected with MH agar containing 100 μg/mL sodium azide and 4 μg/mL ceftazidime-avibactam; furthermore, transconjugants were named J53-AR13438 and J53-KPCZA02, respectively. We compared genomes of AR13438 and J53 to select a unique gene (gtrA) to J53. The blaCMY-178-postive transconjugants were confirmed by PCR and MALDI-TOF MS (see Fig. S9 in the supplemental material). The primers used for PCR were gtrA-F, gtrA-R, CMY-F, and CMY-R (Table S1). The transfer frequencies were calculated as the number of transconjugants (CFU/mL) divided by the number of recipients (CFU/mL). Donors and recipients were mixed at 1:1 for the transfer frequency experiment. S1-PFGE and Southern blotting were performed to define the location of blaCMY-178 and confirm the transmission of the plasmid as described previously ([35]). The MIC profiles of transconjugants were also determined by the agar dilution method.

E. coli J53-KPCZA02 = experiment: MIC by agar dilution, conjugant containing pKPCZA02_4; assay type: cell-based; conditions: Escherichia coli, J53KPCZA02, E. coli J53-KPCZA02 (blaCMY-172)
Method: as §1
as §3, with “The blaCMY-178-postive transconjugants were confirmed by PCR and MALDI-TOF MS (see Fig. S9 in the supplemental material).” left out

E. coli DH5α = experiment: MIC by agar dilution, E. coli DH5α; assay type: cell-based; conditions: Escherichia coli
Method: as §1, §2

E. coli strain AR13438 = experiment: MIC by agar dilution, clinical isolate AR13438; assay type: cell-based, Escherichia coli; conditions: for MIC: Escherichia coli, AR13438, clinical E. coli isolate (blaCMY-178, blaTEM-1, blaCTX-M-27), agar dilution
Method: as §1, §2

E. coli J53-AR13438 = experiment: MIC by agar dilution, conjugant containing pAR13438_2; assay type: cell-based; conditions: Escherichia coli, J53AR13438, E. coli J53-AR13438 (blaCMY-178)
Method: as §1
as §3, with “The blaCMY-178-postive transconjugants were confirmed by PCR and MALDI-TOF MS (see Fig. S9 in the supplemental material).” left out

[1] = system: K. pneumoniae isolate KPCZA02; experiment: microbe, parasite or virus in culture; assay type: cell-based; conditions: Klebsiella pneumoniae
Method: as §1

E. coli DH5α-pCR2.1 = experiment: MIC by agar dilution, DH5α with blank vector pCR2.1; assay type: cell-based; conditions: Escherichia coli
Method: as §1, §2
(§4) The blaCMY cloning was performed using a TA cloning kit (Invitrogen, Shanghai, China). The blaCMY-178 gene combined with its predicted promoter was amplified from isolate AR13438. Then, the blaCMY-178 gene was cloned into the linearized vector pCR2.1 using T4 DNA ligase (Invitrogen). The blaCMY-172 gene was cloned from KPCZA02 with the same method. The resulting plasmids were chemically transformed into E. coli DH5α. The positive transformants were identified by blue-white screening in MH agar containing 50 μg/mL kanamycin and were further confirmed by Sanger sequencing. The pCR2.1 blank vector was also transformed into E. coli DH5α as a control. The primers used for cloning were CMY-F and CMY-R (see Table S2 in the supplemental material). Relative CMY expression was measured by reverse transcription-quantitative PCR as described previously ([34]). Specific quantitative PCR (qPCR) primers (q-recA-F/R and q-CMY-F/R) were designed (Table S2).

[2] = system: E. coli DH5α-pCR2.1-CMY-178; experiment: MIC by agar dilution, transformant containing blaCMY-178; assay type: cell-based, Escherichia coli; conditions: Escherichia coli; E. coli DH5α-pCR2.1-CMY-178; agar dilution
Method: as §1, §2, §4

[3] = system: E. coli DH5α-pCR2.1-CMY-2; experiment: MIC by agar dilution, transformant containing blaCMY-2; assay type: cell-based; conditions: Escherichia coli
[4] = system: E. coli DH5α-pCR2.1-CMY-172; experiment: MIC by agar dilution, transformant containing blaCMY-172; assay type: cell-based; conditions: Escherichia coli
Method: as §1, §2, §4

CMY-172 = biological target: T1, CMY-172 (Klebsiella pneumoniae, UniProt Q48434, DEL310-312/N366I); experiment: Enzyme kinetics (substrate hydrolysis) of purified CMY-172; assay type: biochemical
T1 construct: were amplified without a signal peptide and cloned into the pET28a; His8 (N); made in house; host or cells: E. coli BL21(DE3)
Method: (§5) blaCMYs (including blaCMY-2, blaCMY-172, and blaCMY-178) were amplified without a signal peptide and cloned into the pET28a, which led to the introduction of an N-terminal His8-Tag.The recombinant plasmids were transformed into E. coli BL21(DE3) and selected using Sanger sequencing. Lysogenic broth containing 50 μg/mL kanamycin was inoculated with transformants and grown to reach an OD600 of 0.6. A final concentration of 1 mM isopropyl-β-D-thiogalactopyranoside (IPTG) was added into the resulting culture, which was shaken at 18°C overnight. The culture broth was centrifuged to harvest bacteria. The pellet was resuspended in lysis buffer (50 mM Tris-HCl and 300 mM NaCl (pH 7.5)) and disrupted using a JN-02C French press (JNBIO, Guangzhou, China) at 1,100 bar. Then, the cell debris was removed by centrifugation at 11,000 rpm for 40 min at 4°C. The supernatant was added to an Ni column, and the absorbed protein was eluted by the eluent buffer (lysis buffer with 300 mM imidazole). SDS-PAGE confirmed the protein purity of the eluent (>95%), and the sample was loaded onto a pre-equilibrated Superdex 200 column to eliminate imidazole.
(§6) Enzymatic activities were measured using a D8 UV-visible spectrophotometer (Rumqee, Shanghai, China) in phosphate-buffered saline (PBS; pH 7.2) at room temperature. Substrates tested included nitrocefin, ceftazidime, and avibactam. The extinction coefficient and wavelength of nitrocefin are 17,400 M^−1 · cm^−1 and 482 nm, respectively. […] The initial reaction velocities (v) were measured and Ki values were calculated by fitting data into equation 1 with GraphPad Prism v9.0.0 ([37]). (1) v=Vmax[S]/[S]+Km NCF (1+[I]/Ki)

CMY-178 = biological target: T2, CMY-178 (Klebsiella pneumoniae, UniProt Q48434, DEL310-312/N366I/N90T); experiment: Enzyme kinetics (substrate hydrolysis) of purified CMY-178; assay type: biochemical, Escherichia coli
T2 construct: were amplified without a signal peptide and cloned into the pET28a; His8 (N); made in house; host or cells: E. coli BL21(DE3)
Method: as §5, §6

[5] = system: O=C(Cc1cccs1)N[C@@H]1C(=O)N2C(C(=O)O)=C(/C=C/c3ccc([N+](=O)[O-])cc3[N+](=O)[O-])CS[C@H]12; experiment: Enzyme kinetics (substrate hydrolysis) of purified CMY-2; assay type: biochemical; conditions: other: CMY-2, PBS pH 7.2, room temperature, mean ± SD, three experiments
Method: as §5, §6

[6] = CMY-172, PBS pH 7.2, room temperature, mean ± SD, three experiments
[7] = CMY-178, PBS pH 7.2, room temperature, mean ± SD, three experiments

Molecule	MIC (E. coli J53) [µg/mL]	MIC (E. coli J53-KPCZA02) [µg/mL]	MIC (E. coli DH5α) [µg/mL]	MIC (E. coli strain AR13438) [µg/mL]	MIC (E. coli J53-AR13438) [µg/mL]	MIC [1] [µg/mL]	MIC (E. coli DH5α-pCR2.1) [µg/mL]	MIC [2] [µg/mL]	Antimicrobial susceptibility category (E. coli strain AR13438; AR13438, CLSI breakpoints (M100, 31st edition))	MIC [3] [µg/mL]	MIC [4] [µg/mL]	Kcat (CMY-172; [6]) [s⁻¹]	Km (CMY-172; [6]) [µM]	Decrease of kcat/Km compared with CMY-2 (CMY-172; CMY-172 vs CMY-2)	Kcat (CMY-178; [7]) [s⁻¹]	Km (CMY-178; [7]) [µM]	Decrease of kcat/Km compared with CMY-2 (CMY-178; CMY-178 vs CMY-2)	Km [5] [µM]	kcat [5] [s⁻¹]	kcat/Km [5] [M⁻¹ s⁻¹]
C[C@@H]1O[C@@H]1P(=O)(O)O [FOS, fosfomycin]	0.5 (≈ 3.62 µM)	0.5 (≈ 3.62 µM)	0.25 (≈ 1.81 µM)	1 (≈ 7.24 µM)	0.5 (≈ 3.62 µM)	> 1020	0.25 (≈ 1.81 µM)													
C[C@@H](O)[C@H]1C(=O)N2C(C(=O)O)=C(SCCN=CN)C[C@H]12 [IMP, imipenem]	0.5 (≈ 1.67 µM)	0.5 (≈ 1.67 µM)	0.25 (≈ 0.835 µM)	1 (≈ 3.34 µM)	0.5 (≈ 1.67 µM)	64 (≈ 214 µM)														
C[C@H]1COc2c(N3CCN(C)CC3)c(F)cc3c(=O)c(C(=O)O)cn1c23 [LEV, levofloxacin]	0.03 (≈ 0.083 µM)	0.03 (≈ 0.083 µM)	0.03 (≈ 0.083 µM)	32 (≈ 88.6 µM)	0.03 (≈ 0.083 µM)	32 (≈ 88.6 µM)	0.03 (≈ 0.083 µM)	0.06 (≈ 0.166 µM)	resistant	0.06 (≈ 0.166 µM)										
C[C@@H](O)[C@H]1C(=O)N2C(C(=O)O)=C(S[C@@H]3CN[C@H](C(=O)N(C)C)C3)[C@H](C)[C@H]12 [MEM, meropenem]	0.03 (≈ 0.0782 µM)	0.06 (≈ 0.156 µM)	0.03 (≈ 0.0782 µM)	0.125 (≈ 0.326 µM)	0.06 (≈ 0.156 µM)	128 (≈ 334 µM)	0.03 (≈ 0.0782 µM)	0.06 (≈ 0.156 µM)			0.06 (≈ 0.156 µM)									
O=C(Cc1cccs1)N[C@@H]1C(=O)N2C(C(=O)O)=C(/C=C/c3ccc([N+](=O)[O-])cc3[N+](=O)[O-])CS[C@H]12 [NCF, nitrocefin]												52.41 ± 2.65	12 ± 0.66	approximately 3 fold	55.81 ± 1.04	12.5 ± 0.31	approximately 3 fold			
CCN1CCN(C(=O)N[C@@H](C(=O)N[C@@H]2C(=O)N3[C@@H]2SC(C)(C)[C@@H]3C(=O)O)c2ccccc2)C(=O)C1=O [PIP, piperacillin]	4 (≈ 7.73 µM)	64 (≈ 124 µM)	1 (≈ 1.93 µM)	> 256	64 (≈ 124 µM)	> 256	1 (≈ 1.93 µM)	256 (≈ 495 µM)		256 (≈ 495 µM)	256 (≈ 495 µM)									
CMY-2 (Klebsiella pneumoniae)																		59.88 ± 2.59	732 ± 16.1	1.22e+07 ± 600000
